Measured values: PubChem BioAssay AID2060893 (Molecular Pharmacology Branch, DTP, NCI, 2025)
Where “and” joins values, the source holds several entries; their conditions need not be identical. Equal values may be shown once.

Tested on: K86415-001-R-J1-PDC complex spheroids, viability
Test: Anticancer human tumor K86415-001-R-J1-PDC patient-derived lung adenocarcinoma cell line growth inhibition [RAS]
Conditions: for viability, T/C: stronger effect = lower value
Summary of the method: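 Multi-cell-type spheroids: tumor cells plus HUVEC endothelial cells and mesenchymal stem cells. RAS-pathway inhibitors were combined with targeted agents, each dosed in half-log steps down from clinical Cmax, or from 10 microM when Cmax was unknown.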

[1] = curve of first compound, second compound 0.0316 µM
[2] = curve of first compound, second compound 0.1 µM
[3] = curve of first compound, second compound 0.316 µM
[4] = curve of first compound, second compound 1 µM
[5] = curve of first compound, second compound 3.16 µM
[6] = curve of first compound, second compound 10 µM
[7] = second compound 0.0316 µM, first compound 0.0316 µM
[8] = second compound 0.0316 µM, first compound 0.1 µM
[9] = second compound 0.1 µM, first compound 0.0316 µM
[10] = second compound 0.1 µM, first compound 0.1 µM
[11] = second compound 0.316 µM, first compound 0.0316 µM
[12] = second compound 0.316 µM, first compound 0.1 µM
[13] = second compound 1 µM, first compound 0.0316 µM
[14] = second compound 1 µM, first compound 0.1 µM
[15] = second compound 3.16 µM, first compound 0.0316 µM
[16] = second compound 3.16 µM, first compound 0.1 µM
[17] = second compound 10 µM, first compound 0.0316 µM
[18] = second compound 10 µM, first compound 0.1 µM
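Further: spheroids exposed to agents for seven days before readout.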

## CC(C)NCC(C(=O)N1CCN(c2ncnc3c2C(C)CC3O)CC1)c1ccc(Cl)cc1 (stereo not drawn) + C#Cc1c(F)ccc2cc(O)cc(-c3ncc4c(N5CC6CCC(C5)N6)nc(OCC56CCCN5CC(F)C6)nc4c3F)c12
[1]
  IC50: 7490 nM
[2]
  IC50: 7290 nM
[3]
  IC50: 7560 nM
[4]
  IC50: 4250 nM
[5]
  IC50: < 31.6 nM
[6]
  IC50: < 31.6 nM
[7]
  viability, T/C: 109%
[8]
  viability, T/C: 106%
Second compound 0.0316 µM, first compound 0.316 µM
  viability, T/C: 106%
Second compound 0.0316 µM, first compound 1 µM
  viability, T/C: 89.6%
Second compound 0.0316 µM, first compound 3.16 µM
  viability, T/C: 72.3%
Second compound 0.0316 µM, first compound 10 µM
  viability, T/C: 42.6%
[9]
  viability, T/C: 113%
[10]
  viability, T/C: 103%
Second compound 0.1 µM, first compound 0.316 µM
  viability, T/C: 113%
Second compound 0.1 µM, first compound 1 µM
  viability, T/C: 90.4%
Second compound 0.1 µM, first compound 3.16 µM
  viability, T/C: 68.7%
Second compound 0.1 µM, first compound 10 µM
  viability, T/C: 43.1%
[11]
  viability, T/C: 97%
[12]
  viability, T/C: 94.1%
Second compound 0.316 µM, first compound 0.316 µM
  viability, T/C: 90.9%
Second compound 0.316 µM, first compound 1 µM
  viability, T/C: 84.7%
Second compound 0.316 µM, first compound 3.16 µM
  viability, T/C: 64.4%
Second compound 0.316 µM, first compound 10 µM
  viability, T/C: 45.3%
[13]
  viability, T/C: 74.4%
[14]
  viability, T/C: 62%
Second compound 1 µM, first compound 0.316 µM
  viability, T/C: 56.2%
Second compound 1 µM, first compound 1 µM
  viability, T/C: 65.1%
Second compound 1 µM, first compound 3.16 µM
  viability, T/C: 54.8%
Second compound 1 µM, first compound 10 µM
  viability, T/C: 39.3%
[15]
  viability, T/C: 35.2%
[16]
  viability, T/C: 38.2%
Second compound 3.16 µM, first compound 0.316 µM
  viability, T/C: 26.3%
Second compound 3.16 µM, first compound 1 µM
  viability, T/C: 25.8%
Second compound 3.16 µM, first compound 3.16 µM
  viability, T/C: 38.4%
Second compound 3.16 µM, first compound 10 µM
  viability, T/C: 25.6%
[17]
  viability, T/C: 18.7%
[18]
  viability, T/C: 15.8%
Second compound 10 µM, first compound 0.316 µM
  viability, T/C: 16.4%
Second compound 10 µM, first compound 1 µM
  viability, T/C: 24.7%
Second compound 10 µM, first compound 3.16 µM
  viability, T/C: 16.9%
Second compound 10 µM, first compound 10 µM
  viability, T/C: 5.88%

## CC(C)n1nc(-c2ccc3oc(N)nc3c2)c2c(N)ncnc21 + C#Cc1c(F)ccc2cc(O)cc(-c3ncc4c(N5CC6CCC(C5)N6)nc(OCC56CCCN5CC(F)C6)nc4c3F)c12
[1]
  IC50: 50 nM
[2]
  IC50: 48.8 nM
[3]
  IC50: 57.1 nM
[4]
  IC50: 59 nM
[5]
  IC50: < 0.316 nM
[6]
  IC50: < 0.316 nM
Second compound 0.0316 µM, first compound 0.000316 µM
  viability, T/C: 96.9%
Second compound 0.0316 µM, first compound 0.001 µM
  viability, T/C: 105%
Second compound 0.0316 µM, first compound 0.00316 µM
  viability, T/C: 105%
Second compound 0.0316 µM, first compound 0.01 µM
  viability, T/C: 89.2%
[7]
  viability, T/C: 63.5%
[8]
  viability, T/C: 30.3%
Second compound 0.1 µM, first compound 0.000316 µM
  viability, T/C: 99.6%
Second compound 0.1 µM, first compound 0.001 µM
  viability, T/C: 120%
Second compound 0.1 µM, first compound 0.00316 µM
  viability, T/C: 102%
Second compound 0.1 µM, first compound 0.01 µM
  viability, T/C: 96.5%
[9]
  viability, T/C: 62.4%
[10]
  viability, T/C: 29.3%
Second compound 0.316 µM, first compound 0.000316 µM
  viability, T/C: 95.2%
Second compound 0.316 µM, first compound 0.001 µM
  viability, T/C: 94.7%
Second compound 0.316 µM, first compound 0.00316 µM
  viability, T/C: 92.3%
Second compound 0.316 µM, first compound 0.01 µM
  viability, T/C: 96.5%
[11]
  viability, T/C: 67.5%
[12]
  viability, T/C: 33.4%
Second compound 1 µM, first compound 0.000316 µM
  viability, T/C: 68.8%
Second compound 1 µM, first compound 0.001 µM
  viability, T/C: 70.6%
Second compound 1 µM, first compound 0.00316 µM
  viability, T/C: 68.1%
Second compound 1 µM, first compound 0.01 µM
  viability, T/C: 83%
[13]
  viability, T/C: 70%
[14]
  viability, T/C: 32.4%
Second compound 3.16 µM, first compound 0.000316 µM
  viability, T/C: 35.4%
Second compound 3.16 µM, first compound 0.001 µM
  viability, T/C: 40.3%
Second compound 3.16 µM, first compound 0.00316 µM
  viability, T/C: 38.2%
Second compound 3.16 µM, first compound 0.01 µM
  viability, T/C: 44.5%
[15]
  viability, T/C: 52.3%
[16]
  viability, T/C: 28.5%
Second compound 10 µM, first compound 0.000316 µM
  viability, T/C: 15.9%
Second compound 10 µM, first compound 0.001 µM
  viability, T/C: 17.6%
Second compound 10 µM, first compound 0.00316 µM
  viability, T/C: 15.1%
Second compound 10 µM, first compound 0.01 µM
  viability, T/C: 19.3%
[17]
  viability, T/C: 19.5%
[18]
  viability, T/C: 8.39%

## Cc1nc(N2CCC3(CC2)COC(C)C3N)c(CO)nc1Sc1ccnc(N)c1Cl (stereo not drawn)
Compound 0.0316 µM
  viability, T/C: 76.3% [middle of 4 runs]
Compound 0.1 µM
  viability, T/C: 53.6% [middle of 4 runs]
Compound 0.316 µM
  viability, T/C: 36.6% [middle of 4 runs]
Compound 1 µM
  viability, T/C: 27.2% [middle of 4 runs]
Compound 3.16 µM
  viability, T/C: 24.6% [middle of 4 runs]
Compound 10 µM
  viability, T/C: 20.1% [middle of 4 runs]
Curve of compound
  IC50: 122 nM [middle of 4 runs]

## CC1(C)CCC(Nc2ncc(C(F)(F)F)c(-c3c[nH]c4c(P(C)(C)=O)c(C#N)ccc34)n2)CN1 (stereo not drawn)
Compound 0.000949 µM
  viability, T/C: 110% and 123% (2×) and 109%
Compound 0.003 µM
  viability, T/C: 120% [middle of 4 runs]
Compound 0.00949 µM
  viability, T/C: 75.7% [middle of 4 runs]
Compound 0.03 µM
  viability, T/C: 58.1% [middle of 4 runs]
Compound 0.0949 µM
  viability, T/C: 60.8% [middle of 4 runs]
Compound 0.3 µM
  viability, T/C: 60.1% [middle of 4 runs]
Curve of compound
  IC50: > 300 nM
